According to patent publication US20110130380A1, “Heteroaryl Kinase Inhibitors” (priority 2009, published 2011):

What follows are compounds tested against Cdk9/cyclinT1 (Homo sapiens, UniProt P50750) (assay: Cdk9/cyclinT1 IMAP Protocol (fluorescence polarization kinase assay)). Conditions: Cdk9_cyclinT1_IC50, Table V; generated using one of the two Cdk9/cyclinT1 assays (IMAP or Alpha Screen), not stated which; ATP 6 uM.
Sequence of Cdk9/cyclinT1 (P50750 whole entry): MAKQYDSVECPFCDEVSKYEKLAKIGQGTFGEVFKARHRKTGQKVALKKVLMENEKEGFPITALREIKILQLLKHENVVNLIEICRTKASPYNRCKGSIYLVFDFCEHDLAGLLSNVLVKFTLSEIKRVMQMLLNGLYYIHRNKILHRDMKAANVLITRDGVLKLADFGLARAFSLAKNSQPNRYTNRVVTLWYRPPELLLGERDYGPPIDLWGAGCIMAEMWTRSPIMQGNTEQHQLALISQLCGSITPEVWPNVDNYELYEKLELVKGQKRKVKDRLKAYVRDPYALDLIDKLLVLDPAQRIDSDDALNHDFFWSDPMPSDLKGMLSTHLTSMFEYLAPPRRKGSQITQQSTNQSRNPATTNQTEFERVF
Sequence of Cdk9/cyclinT1 (O60563 whole entry partner): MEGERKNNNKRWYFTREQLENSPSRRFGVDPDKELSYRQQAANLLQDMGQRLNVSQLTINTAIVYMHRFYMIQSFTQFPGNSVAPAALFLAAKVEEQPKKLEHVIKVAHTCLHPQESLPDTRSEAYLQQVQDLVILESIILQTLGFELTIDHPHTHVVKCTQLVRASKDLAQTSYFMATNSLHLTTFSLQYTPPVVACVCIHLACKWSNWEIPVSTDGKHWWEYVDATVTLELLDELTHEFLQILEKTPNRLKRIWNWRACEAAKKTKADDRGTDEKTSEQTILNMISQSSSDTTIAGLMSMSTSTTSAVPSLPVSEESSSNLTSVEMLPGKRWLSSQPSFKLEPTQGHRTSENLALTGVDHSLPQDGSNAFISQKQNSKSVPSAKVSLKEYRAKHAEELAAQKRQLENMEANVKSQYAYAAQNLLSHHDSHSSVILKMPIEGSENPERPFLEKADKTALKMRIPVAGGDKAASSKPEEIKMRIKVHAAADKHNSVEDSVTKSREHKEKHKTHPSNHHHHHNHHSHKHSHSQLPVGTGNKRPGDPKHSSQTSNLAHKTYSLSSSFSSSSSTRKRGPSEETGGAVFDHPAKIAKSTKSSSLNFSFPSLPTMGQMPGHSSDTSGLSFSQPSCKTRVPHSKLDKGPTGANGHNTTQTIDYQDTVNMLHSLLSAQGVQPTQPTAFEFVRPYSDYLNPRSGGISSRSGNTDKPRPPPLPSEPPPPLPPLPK

Structure (SMILES)	IC50
CC[C@@H]1CC[C@@H](C(=O)Nc2cc(-c3cccc(NCC4CCOCC4)n3)ccn2)CN1 (racemic) [Example 230, (3R,6R)-/(3S,6S)-6-Ethyl-piperidine-3-carboxylic acid {6-[(tetrahydro-pyran-4-ylmethyl)-amino]-[2,4′]bipyridinyl-2′-yl}-amide]	2 nM
CN1CCCCC(C(=O)Nc2cc(-c3cccc(NCC4CCOCC4)n3)c(Cl)cn2)C1 (centres unmarked) [Example 199, 1-Methyl-azepane-3-carboxylic acid {5′-chloro-6-[(tetrahydro-pyran-4-ylmethyl)-amino]-[2,4′]bipyridinyl-2′-yl}-amide]	51 nM
O=C(Nc1cc(-c2nc(NCC3CCOCC3)ccc2F)c(Cl)cn1)C1CNCCOC1 (centres unmarked) [Example 204, [1,4]Oxazepane-6-carboxylic acid {5′-chloro-3-fluoro-6-[(tetrahydro-pyran-4-ylmethyl)-amino]-[2,4′]bipyridinyl-2′-yl}-amide]	1 nM
O=C(Nc1cc(-c2nc(NCC3CCOCC3)ccc2Cl)c(Cl)cn1)C1CNCCOC1 (single isomer, unassigned) [Example 214]	1 nM
O=C(Nc1cc(-c2nc(NCC3CCOCC3)ccc2Cl)c(Cl)cn1)C1CNCCOC1 (single isomer, unassigned) [Example 213]	2 nM
O=C(Nc1cc(-c2cccc(N3CCOCC3)n2)c(Cl)cn1)[C@@H]1CCCNC1 [Example 45, (R)-Piperidine-3-carboxylic acid (5′-chloro-6-morpholin-4-yl-[2,4′]bipyridinyl-2′-yl)-amide]	154 nM
CO[C@H]1CNC[C@@H]1C(=O)Nc1cc(-c2nc(NCC3CCOCC3)ccc2Cl)c(Cl)cn1 [Example 150, (3S,4R)-4-Methoxy-pyrrolidine-3-carboxylic acid {3,5′-dichloro-6-[(tetrahydro-pyran-4-ylmethyl)-amino]-[2,4′]bipyridinyl-2′-yl}-amide]	< 8 nM
C[C@H]1CNC[C@H](C(=O)Nc2cc(-c3cccc(NCC4CCOCC4)n3)c(Cl)cn2)C1 (racemic) [Example 104, (3R,5R)-/(3S,5S)-5-Methyl-piperidine-3-carboxylic acid {5′-chloro-6-[(tetrahydro-pyran-4-ylmethyl)-amino]-[2,4′]bipyridinyl-2′-yl}-amide]	46 nM
CC(C)(C)C(=O)Nc1cc(-c2cccc(NCC3CCOCC3)n2)c(Cl)cn1 [Example 72, N-{5′-Chloro-6-[(tetrahydro-pyran-4-ylmethyl)-amino]-[2,4′]bipyridinyl-2′-yl}-2,2-dimethyl-propionamide]	40 nM
CC(C)O[C@H]1CNC[C@@H]1C(=O)Nc1cc(-c2cccc(NCC3(C)CCOCC3)n2)c(Cl)cn1 [Example 249, (3S,4R)-4-Isopropoxy-pyrrolidine-3-carboxylic acid {5′-chloro-6-[(4-methyl-tetrahydro-pyran-4-ylmethyl)-amino]-[2,4′]bipyridinyl-2′-yl}-amide]	9 nM
N[C@@H]1CC[C@@H](C(=O)Nc2cc(-c3cccc(NCC4CCOCC4)n3)c(Cl)cn2)C1 [Example 49, (1R,3R)-3-Amino-cyclopentanecarboxylic acid {5′-chloro-6-[(tetrahydro-pyran-4-ylmethyl)-amino]-[2,4′]bipyridinyl-2′-yl}-amide]	< 8 nM
O=C(COc1ccc(Cl)cn1)Nc1cc(-c2cccc(NCC3CCOCC3)n2)c(Cl)cn1 [Example 103, 2-(5-Chloro-pyridin-2-yloxy)-N-{5′-chloro-6-[(tetrahydro-pyran-4-ylmethyl)-amino]-[2,4′]bipyridinyl-2′-yl}-acetamide]	27 nM
O=C(Nc1cc(-c2cccc(NCc3cccc(F)c3)n2)c(Cl)cn1)[C@@H]1CCCNC1 [Example 1, (R)-Piperidine-3-carboxylic acid [5′-chloro-6-(3-fluoro-benzylamino)-[2,4+]bipyridinyl-2′-yl]-amide]	< 8 nM
CC[C@@H]1CC[C@@H](C(=O)Nc2cc(-c3cccc(NCC4CCOCC4)n3)c(Cl)cn2)CN1 (single isomer, unassigned) [Example 240]	1 nM
O=C(Nc1cc(-c2cccc(NCC3CCOCC3)n2)c(Cl)cn1)C1CNC1 [Example 119, Azetidine-3-carboxylic acid {5′-chloro-6-[(tetrahydro-pyran-4-ylmethyl)-amino]-[2,4′]bipyridinyl-2′-yl}-amide]	14 nM
CS(=O)(=O)N1CCC[C@H](C(=O)Nc2cc(-c3cccc(NCC4CCOCC4)n3)c(Cl)cn2)C1 [Example 91, (S)-1-Methanesulfonyl-piperidine-3-carboxylic acid {5′-chloro-6-[(tetrahydro-pyran-4-ylmethyl)-amino]-[2,4′]bipyridinyl-2′-yl}-amide]	< 8 nM
CC(C)(C)OC(=O)N1CCC[C@@H](C(=O)Nc2cc(-c3cccc(NCC4CCOCC4)n3)c(Cl)cn2)C1 [Example 6, (R)-3-{5′-Chloro-6-[(tetrahydro-pyran-4-ylmethyl)-amino]-[2,4′]bipyridinyl-2′-ylcarbamoyl}-piperidine-1-carboxylic acid tert-butyl ester]	92 nM
COC[C@@H]1C[C@@H](C(=O)Nc2cc(-c3cccc(NCC4(C)CCOCC4)n3)c(Cl)cn2)CN1 [Example 239, (3R,5S)-5-Methoxymethyl-pyrrolidine-3-carboxylic acid {5′-chloro-6-[(4-methyl-tetrahydro-pyran-4-ylmethyl)-amino]-[2,4′]bipyridinyl-2′-yl}-amide]	1 nM
CC[C@@H]1CC[C@@H](C(=O)Nc2cc(-c3ccc(F)c(NCC4CCOCC4)n3)ccn2)CN1 (racemic) [Example 251, (3R,6R)-/(3S,6S)-6-Ethyl-piperidine-3-carboxylic acid {5-fluoro-6-[(tetrahydro-pyran-4-ylmethyl)-amino]-[2,4′]bipyridinyl-2′-yl}-amide]	1 nM
O=C(Nc1cc(-c2cccc(N3CCC(O)CC3)n2)c(Cl)cn1)[C@@H]1CCCNC1 [Example 43, (R)-Piperidine-3-carboxylic acid (5″- chloro-4-hydroxy-3,4,5,6-tetrahydro-2H-[1,2′;6′,4″]terpyridin-2″- yl)-amide]	57 nM
CS(=O)(=O)N[C@@H]1CC[C@H](C(=O)Nc2cc(-c3nc(NCC4CCOCC4)ccc3Cl)c(Cl)cn2)C1 [Example 109, (1S,3R)-3-Methanesulfonylamino-cyclopentanecarboxylic acid {3,5′-dichloro-6-[(tetrahydro-pyran-4-ylmethyl)-amino]-[2,4′]bipyridinyl-2′-yl}-amide]	< 8 nM
O=C(Nc1cc(-c2nc(NCC3CCOCC3)ccc2F)c(Cl)cn1)C1CNCCOC1 (single isomer, unassigned) [Example 222]	25 nM

Other lines, results leading:

IC50	Structure (SMILES)
< 8 nM	O=C(Nc1cc(-c2cccc(NCC3CCOCC3)n2)c(Cl)cn1)[C@@H]1CCNC1 [Example 50, (R)-Pyrrolidine-3-carboxylic acid {5′-chloro-6-[(tetrahydro-pyran-4-ylmethyl)-amino]-[2,4′]bipyridinyl-2′-yl}-amide]
23 nM	O=C(Nc1cc(-c2cccc(NCC3CCCCC3)n2)c(Cl)cn1)[C@H]1CCCNC1 [Example 38, (S)-Piperidine-3-carboxylic acid [5′-chloro-6-(cyclohexylmethyl-amino)-[2,4′]bipyridinyl-2′-yl]-amide]
1 nM	CC[C@@H]1CC[C@@H](C(=O)Nc2cc(-c3ccc(F)c(NCC4CCOCC4)n3)c(Cl)cn2)CN1 (single isomer, unassigned) [Example 256]
3 nM	C[C@H]1CC[C@H](C(=O)Nc2cc(-c3ccc(F)c(NCC4CCOCC4)n3)c(Cl)cn2)CN1 (single isomer, unassigned) [Example 190]
1 nM	CC1(C)C[C@H](CNc2nc(-c3cc(NC(=O)[C@@H]4CCCNC4)ncc3Cl)ccc2F)CCO1 (single isomer, unassigned) [Example 215]
3 nM	COC1(CNc2nc(-c3cc(NC(=O)[C@@H]4CCCNC4)ncc3Cl)ccc2F)CCOCC1 [Example 248, (R)-Piperidine-3-carboxylic acid {5′-chloro-5-fluoro-6-[(4-methoxy-tetrahydro-pyran-4-ylmethyl)-amino]-[2,4′]bipyridinyl-2′-yl}-amide]
< 8 nM	O=C(Nc1cc(-c2cccc(NCC3CCCCCC3)n2)c(Cl)cn1)[C@@H]1CCCNC1 [Example 19, (R)-Piperidine-3-carboxylic acid [5′-chloro-6-(cycloheptylmethyl-amino)-[2,4′]bipyridinyl-2′-yl]-amide]
4 nM	CC1(C)C[C@H](CNc2ccc(Cl)c(-c3cc(NC(=O)[C@H]4CNCCO4)ncc3Cl)n2)CCO1 (single isomer, unassigned) [Example 156]
1 nM	CC1(C)CO[C@H](CNc2cccc(-c3cc(NC(=O)[C@@H]4CCCNC4)ncc3Cl)n2)CO1 (single isomer, unassigned) [Example 232]
1 nM	CC1(C)C[C@H](CNc2cccc(-c3cc(NC(=O)[C@@H]4CCNC4)ncc3Cl)n2)CCO1 [Example 259, (R)-Pyrrolidine-3-carboxylic acid {5′-chloro-6-[((R)-2,2-dimethyl-tetrahydro-pyran-4-ylmethyl)-amino]-[2,4′]bipyridinyl-2′-yl}-amide]
33 nM	CC(C)CNc1cccc(-c2cc(NC(=O)[C@@H]3CCCNC3)ncc2Cl)n1 [Example 22, (R)-Piperidine-3-carboxylic acid (5′-chloro-6-isobutylamino-[2,4′]bipyridinyl-2′-yl)-amide]

Same assay, conditions: Cdk9_cyclinT1_IC50, generated using one of the two Cdk9/cyclinT1 assays (IMAP or Alpha Screen), not specified per value; ATP 6 uM

IC50	Structure (SMILES)
103 nM	Cc1ncc(-c2cc(NC(=O)[C@@H]3CCCNC3)ncc2Cl)cc1NCC1CCOCC1 [Example 311, (R)-Piperidine-3-carboxylic acid {5′-chloro-6-methyl-5-[(tetrahydro-pyran-4-ylmethyl)-amino]-[3,4′]bipyridinyl-2′-yl}-amide]
627 nM	Cc1ccncc1-c1cc(NC(=O)[C@@H]2CCCNC2)ncc1Cl [Example 309, (R)-Piperidine-3-carboxylic acid (5′-chloro-4-methyl-[3,4′]bipyridinyl-2′-yl)-amide]
